In patent US12594264B2, “Modulators of alpha-synuclein proteolysis and associated methods of use” (Arvinas Operations, Inc., priority 2018, dated 2026):

Legend:
[1] = target: T1, sarkosyl insoluble (SI) α-synuclein (human α-SYN A53T) (Homo sapiens, UniProt P37840, A53T); test: MJFF-14-6-4-2 conformation specific ELISA of sarkosyl insoluble α-synuclein after compound treatment; format: cell-based; details: 1 μM compound; protein remaining relative to DMSO control; PFF induced A53T α-synuclein overexpressing HEK293 cells; read-out: Protein Degradation at 1 μM
T1 construct: expressed in transfected cells
Protocol: (§1) Targeted degradation of sarkosyl insoluble (SI) α-synuclein via exemplary bifunctional compounds was assessed by MJFF-14-6-4-2 conformation specific ELISA following treatment of PFF induced A53T α-synuclein overexpressing HEK293 cells with 1 μM exemplary compound compared to DMSO vehicle control. Degradation activity of the exemplary compounds of Table 2 is expressed as % DMSO control. […] However, the effect of bifunctional targeting degraders, shown in FIG. 5, required the intact E3 ligase binding domain.
(§2) Trex293 (doxycycline inducible) cells stably expressing human α-SYN A53T (monoclonal) were plated in poly-d-lysine coated T-75 tissue culture flasks (4.5×10e6 cells/flask) in DMEM with 10% tet-free FBS, 10 μg/ml blasticidin, and 400 μg/ml zeocin. After an overnight incubation, the cells were induced to express α-SYN by treatment with 1 μg/ml doxycycline (Dox) and exemplary bifunctional compound. After a 24 hour dox induction, the medium on the cells was changed to Opti-MEM followed by treatment with α-SYN pre-formed fibrils** (PFFs)(5 μg/flask) pre-complexed with Lipofectamine 2000 transfection reagent for 4 hours. After PFF treatment, the medium was changed back to DMEM with the supplements described above and exemplary bifunctional compound for 48 hours.
(§3) Cell pellets were harvested from each flask using 0.25% trypsin followed by spinning at 500×g for 5 minutes. Each pellet was resuspended in 1 ml cold buffer H [Buffer H-10 mM Tris, 1 mM EGTA, 0.8M NaCl, 10% sucrose, pH7.4 containing 1× protease and phosphatase inhibitors] containing protease and phosphatase inhibitors. The resuspended pellets were incubated on ice for 20 minutes followed by centrifugation at 27,200×g for 20 minutes at 4° C. The supernatants were adjusted to 1% sarkosyl (Sigma) and 1% 2-mercaptoethanol followed by incubation for 1 hour at 37° C. on an orbital shaker set to 400 rpm. The samples were then spun at 150,000×g for 35 minutes at room temperature. The supernatant was removed and saved as the soluble fraction and the insoluble pellet was resuspended in 25 μl tris-buffered saline (TBS). Protein concentrations were determined by NanoDrop, and normalized protein concentrations were analyzed by WES capillary electrophoresis as well as an α-SYN oligomer ELISA.
Recombinant human α-SYN was purchased from Proteos. 1 mg aliquots were supplied at 10 mg/ml in 10 mM Tris, 50 mM NaCl, pH7.6. The aliquot was thawed on ice followed by centrifugation at 4° C. for 10 minutes at 12,000×g to pellet any insoluble material. The supernatant was removed and quantitated on a NanoDrop (A280) using Beer's Law (ε=5960 M-1 cm-1). The concentration was adjusted to 5 mg/ml in PBS followed by vortexing for 3 seconds to mix contents. The mixture was incubated in an orbital shaker set to 37° C. at 1,000 rpm for 7 days followed by aliquoting into individual use vials. Prior to addition to cells, an aliquot was thawed at room temperature, then diluted to 1 mg/ml with phosphate-buffered saline (PBS) followed by sonication for 1 minute with a probe sonicator (output 1; 90% duty cycle) in a chem hood.
Coming Costar high bind black well plates were coated with MJFR 14-6-4-2 (Abcam) at 1 μg/ml for 1 hour at 37° C. followed by washing with 1×TBS+0.1% tween-20 (TBS-T) then blocking with 3% bovine serum albumin (BSA) in TBS. After re-washing, samples were added after dilution in diluent (1% BSA/TBS-T). Non-sonicated PFF was used to generate a standard curve. The plates were incubated with sample overnight at 4° C. with shaking. The following day alkaline phosphatase (AP) conjugated MJFR 14-6-4-2 was added to the plate without washing followed by incubation at room temperature for 1 hour with shaking or rocking. The plates were then re-washed and substrate (CDP star alkaline phosphatase detection reagent) was added followed by a 30 minute incubation at room temperature. The plate was read on a luminescence plate reader. The counts were log transformed and read off the standard curve. […]

[2] = system: PFF induced HEK293 TREX α-syn A53T cells; test: Cytotoxicity by visual inspection of treated cells; format: cell-based, human; details: 1 μM
Protocol: as §1, §2
To assess targeted degradation of sarkosyl insoluble α-synuclein, exemplary bifunctional compounds designed to bind to oligomeric α-synuclein were tested at 1 μM in PFF induced HEK293 TREX α-syn A53T cells.

[3] = target: T2, SI A53T α-synuclein protein oligomers (Homo sapiens, UniProt P37840, A53T); test: E3 ligase ligand competition experiment (Oligomer ELISA); format: cell-based; details: for Degradation activity with co-incubated excess E3 ligase ligand: 1 uM compound plus 15-fold molar excess E3 ligase ligand (VHL Ligand with 7, Cereblon Ligand with 23), FIG. 6A bars 2 and 4; for Reduction of SI A53T α-synuclein oligomers (Oligomer ELISA), compound alone: 1 uM compound, no competitor, FIG. 6A bars 1 and 3
T2 construct: expressed in transfected cells
Protocol: FIGS. 6A and 6B. α-Synuclein bifunctional degradation compound activity requires the E3 ligase activity for effective degradation. Pre-formed alpha-synuclein fibrils (α-syn PFFs) were added to TREX tetracycline inducible HEK293 cells that overexpress A53T mutant α-syn to induce detergent-insoluble oligomers as measured by Oligomer ELISA. Doxycycline induced α-syn A53T cells were treated with PFFs to produce higher order oligomeric α-syn A53T in the sarkosyl insoluble fraction and SI α-syn oligomers were detected by ELISA, as described in below. Exemplary bifunctional degradation compounds 7 and 23 at 1 uM concentration, used to generate the data shown in bars 1 and 3, reduced sarkosyl insoluble α-syn.
as §2, §3
Coming Costar high bind black well plates were coated with MJFR 14-6-4-2 (Abcam) at 1 μg/ml for 1 hour at 37° C. followed by washing with 1×TBS+0.1% tween-20 (TBS-T) then blocking with 3% bovine serum albumin (BSA) in TBS. […] The plate was read on a luminescence plate reader. The counts were log transformed and read off the standard curve. […]

remaining activity at 1 µM [1] [%] | Degradation activity with co-incubated excess E3 ligase ligand [3] | Reduction of SI A53T α-synuclein oligomers (Oligomer ELISA), compound alone [3] | SMILES | Cytotoxicity at the concentration tested [2]
35 to 70 | effectively competed | effectively reduced | Cc1ncsc1-c1ccc([C@H](C)NC(=O)[C@@H]2C[C@@H](O)CN2C(=O)[C@@H](NC(=O)COCCOCCOc2ccc(CN3C(=O)C(=CC=Cc4ccc([N+](=O)[O-])cc4)c4ccccc43)cc2)C(C)(C)C)cc1 (single isomer, unassigned) [Exemplary Compound 7] | without any visual impact to cell health
35 to 70 | effectively competed | effectively reduced | O=C1CCC(N2C(=O)c3ccc(N4CCN(CCN5CCC(OC6CN(CCCN7c8ccccc8Sc8ccccc87)C6)CC5)CC4)cc3C2=O)C(=O)N1 (stereo not shown) [Exemplary Compound 23, 5-(4-(2-(4-((1-(3-(10H-phenothiazin-10-yl)propyl)azetidin-3-yl)oxy)piperidin-1-yl)ethyl)piperazin-1-yl)-2-(2,6-dioxopiperidin-3-yl)isoindoline-1,3-dione] | 
